{"source": "ChEMBL document CHEMBL3882726", "about": "“Pyrimidine Derivatives As Kinase Modulators and Method of Use” (2008)", "molecular_target": "Insulin-like growth factor 1 receptor (Homo sapiens, UniProt P08069)", "sequence (P08069 31-736 limits assumed)": "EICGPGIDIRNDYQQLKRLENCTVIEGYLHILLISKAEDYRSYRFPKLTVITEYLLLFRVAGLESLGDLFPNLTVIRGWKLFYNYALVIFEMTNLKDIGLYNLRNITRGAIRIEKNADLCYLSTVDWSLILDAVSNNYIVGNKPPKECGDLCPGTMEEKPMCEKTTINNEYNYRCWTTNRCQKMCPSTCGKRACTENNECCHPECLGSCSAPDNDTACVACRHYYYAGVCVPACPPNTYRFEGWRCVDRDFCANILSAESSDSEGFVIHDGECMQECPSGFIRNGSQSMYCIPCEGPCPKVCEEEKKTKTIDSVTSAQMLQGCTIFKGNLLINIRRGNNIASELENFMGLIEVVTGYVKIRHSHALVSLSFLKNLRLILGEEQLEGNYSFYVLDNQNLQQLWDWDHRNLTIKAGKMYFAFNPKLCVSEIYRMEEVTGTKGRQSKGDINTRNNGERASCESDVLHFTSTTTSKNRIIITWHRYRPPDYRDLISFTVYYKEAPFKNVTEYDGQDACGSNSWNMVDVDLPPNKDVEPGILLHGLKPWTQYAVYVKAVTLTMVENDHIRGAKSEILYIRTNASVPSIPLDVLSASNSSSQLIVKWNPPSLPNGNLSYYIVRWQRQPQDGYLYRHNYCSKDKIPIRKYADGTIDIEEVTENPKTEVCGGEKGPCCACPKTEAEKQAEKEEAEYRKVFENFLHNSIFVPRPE", "sequence (P08069 741-1367 limits assumed)": "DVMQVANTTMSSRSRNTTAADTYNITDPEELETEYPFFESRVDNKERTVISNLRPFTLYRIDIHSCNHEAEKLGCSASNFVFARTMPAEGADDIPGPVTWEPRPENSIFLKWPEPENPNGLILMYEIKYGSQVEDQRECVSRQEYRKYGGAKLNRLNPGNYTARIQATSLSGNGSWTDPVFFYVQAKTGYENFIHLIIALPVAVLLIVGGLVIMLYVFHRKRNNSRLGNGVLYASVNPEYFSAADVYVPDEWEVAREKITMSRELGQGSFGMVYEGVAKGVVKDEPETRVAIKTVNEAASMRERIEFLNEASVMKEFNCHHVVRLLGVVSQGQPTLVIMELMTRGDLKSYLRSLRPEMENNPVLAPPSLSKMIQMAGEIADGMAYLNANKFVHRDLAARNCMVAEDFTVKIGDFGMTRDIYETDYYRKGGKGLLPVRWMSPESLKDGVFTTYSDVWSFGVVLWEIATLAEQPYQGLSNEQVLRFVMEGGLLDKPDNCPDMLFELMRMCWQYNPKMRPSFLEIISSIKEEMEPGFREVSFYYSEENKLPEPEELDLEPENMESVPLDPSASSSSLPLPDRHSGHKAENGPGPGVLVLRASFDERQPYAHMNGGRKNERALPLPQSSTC", "assay": "Inhibition of human IGF1R kinase domain (M954 to C1367 residues) tri-phosphorylated enzyme form expressed in baculovirus based expression system using poly-EY peptide incubated for 2 hrs by luciferase-luciferin coupled chemiluminescent assay", "data": [{"compound": "COc1cc(Nc2nc(C)cc(Nc3cc(C4CC4)n[nH]3)n2)cc([N+](=O)[O-])c1", "values": [{"measurement": "IC50", "result": "≥ 5", "unit": "µM"}]}]}
